Bounds are passed on as bounds.

This passage reports IC50 results from US11814367B2, “Inhibitors of glycogen synthase 1 (GYS1) and methods of use thereof” (Maze Therapeutics, Inc., priority 2021, dated 2023).

Assay [1] addresses hGYS2 enzyme (recombinant hGYS2/GN1 protein) (Homo sapiens (Human), UniProt P54840). The assay can be described thus: GYS2 coupled enzyme assay (PK/LDH). It is filed as biochemical. Conditions: geometric mean of at least 2 assay runs on separate days, read-out: Avg_IC50. An outline of the steps:
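Read-out: NADH loss at 340 nm, read each minute for 10 min, slope normalized to controls, duplicate % inhibition fit to Hill (0–100). Enzyme: 200 nM hGYS2/GN1; substrate 2 mM UDP-glucose plus 0.2% glycogen and 2 mM G6P; pH 7.5 Tris, 2.5% DMSO.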

In assay [2] the target is hGYS1 enzyme (recombinant hGYS1/GN1 protein) (Homo sapiens (Human), UniProt P13807). The assay can be described thus: GYS1 coupled enzyme assay (PK/LDH). It counts as biochemical. The note with it: hGYS1/GN1 50 nM, UDP-Glucose 0.8 mM, G6P 1 mM; geometric mean of at least 2 runs.
Sequence of hGYS1 enzyme (recombinant hGYS1/GN1 protein) (P13807 whole entry): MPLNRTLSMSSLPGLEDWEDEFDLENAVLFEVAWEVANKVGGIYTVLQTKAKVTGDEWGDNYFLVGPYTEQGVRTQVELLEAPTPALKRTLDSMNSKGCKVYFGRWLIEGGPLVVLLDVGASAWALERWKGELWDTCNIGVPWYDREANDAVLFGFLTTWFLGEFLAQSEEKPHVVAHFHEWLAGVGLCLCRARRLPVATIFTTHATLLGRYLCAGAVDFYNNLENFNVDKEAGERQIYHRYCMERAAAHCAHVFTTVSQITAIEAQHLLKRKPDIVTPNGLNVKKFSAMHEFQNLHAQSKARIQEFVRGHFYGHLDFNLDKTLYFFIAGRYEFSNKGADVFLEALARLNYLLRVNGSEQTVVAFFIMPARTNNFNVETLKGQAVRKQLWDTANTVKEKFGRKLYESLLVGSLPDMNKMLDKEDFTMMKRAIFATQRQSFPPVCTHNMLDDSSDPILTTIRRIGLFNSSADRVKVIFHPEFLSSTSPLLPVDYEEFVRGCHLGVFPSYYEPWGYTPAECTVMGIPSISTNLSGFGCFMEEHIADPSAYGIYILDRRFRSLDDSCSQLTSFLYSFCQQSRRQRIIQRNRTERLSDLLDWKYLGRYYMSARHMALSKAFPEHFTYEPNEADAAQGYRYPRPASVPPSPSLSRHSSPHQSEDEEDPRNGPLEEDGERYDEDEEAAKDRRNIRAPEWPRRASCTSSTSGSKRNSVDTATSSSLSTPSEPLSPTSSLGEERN
Sequence of hGYS1 enzyme (recombinant hGYS1/GN1 protein) (P46976 whole entry partner): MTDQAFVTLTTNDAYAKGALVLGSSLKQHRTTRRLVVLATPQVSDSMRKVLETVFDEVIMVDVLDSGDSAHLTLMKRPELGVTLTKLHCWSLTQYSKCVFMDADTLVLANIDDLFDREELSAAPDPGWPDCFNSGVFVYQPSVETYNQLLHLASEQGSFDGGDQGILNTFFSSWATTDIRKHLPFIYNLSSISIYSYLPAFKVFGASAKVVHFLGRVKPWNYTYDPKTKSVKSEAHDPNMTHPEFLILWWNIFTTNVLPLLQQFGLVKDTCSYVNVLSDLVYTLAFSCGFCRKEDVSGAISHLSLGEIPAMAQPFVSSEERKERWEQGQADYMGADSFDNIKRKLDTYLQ

Sequence of hGYS2 enzyme (recombinant hGYS2/GN1 protein) (P54840 whole entry): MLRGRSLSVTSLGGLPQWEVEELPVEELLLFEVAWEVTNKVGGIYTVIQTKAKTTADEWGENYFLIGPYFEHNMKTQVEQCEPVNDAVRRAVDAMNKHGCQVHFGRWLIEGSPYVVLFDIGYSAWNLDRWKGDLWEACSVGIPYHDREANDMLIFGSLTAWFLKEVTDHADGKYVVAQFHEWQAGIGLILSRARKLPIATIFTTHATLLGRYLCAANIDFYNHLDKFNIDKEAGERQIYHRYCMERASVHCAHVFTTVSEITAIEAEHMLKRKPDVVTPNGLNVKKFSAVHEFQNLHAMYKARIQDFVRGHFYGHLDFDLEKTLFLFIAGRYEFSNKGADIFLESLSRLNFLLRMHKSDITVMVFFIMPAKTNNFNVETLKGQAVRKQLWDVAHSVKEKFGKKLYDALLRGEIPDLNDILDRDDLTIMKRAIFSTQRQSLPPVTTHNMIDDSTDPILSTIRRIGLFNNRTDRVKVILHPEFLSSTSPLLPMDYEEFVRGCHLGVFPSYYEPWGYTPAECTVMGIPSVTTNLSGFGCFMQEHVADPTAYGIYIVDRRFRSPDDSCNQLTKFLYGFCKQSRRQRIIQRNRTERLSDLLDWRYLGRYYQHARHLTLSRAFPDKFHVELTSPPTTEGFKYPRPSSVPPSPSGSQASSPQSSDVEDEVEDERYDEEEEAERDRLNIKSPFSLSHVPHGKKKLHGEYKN
Sequence of hGYS2 enzyme (recombinant hGYS2/GN1 protein) (P46976 whole entry partner): as the sequence (P46976 whole entry partner) above

With `CC(=O)N1CCCO[C@@H](C(=O)N2C[C@H](F)C[C@H]2C(=O)N[C@@H](c2ccccc2)c2ccc(C(C)C)cc2)C1` [Compound 158, (2S,4R)-1-[(2R)-4-acetyl-1,4-oxazepane-2-carbonyl]-4-fluoro-N-[(S)-phenyl[4-(propan-2-yl)phenyl]methyl]pyrrolidine-2-carboxamide], the figures for the IC50 in assay [1] and in assay [2] were over 100000 nM and 70 nM, respectively.
For `CC(=O)N1CCN(CC(=O)N2C[C@H](F)C[C@H]2C(=O)N[C@@H](c2ccccc2)c2ccc(C(C)C)cc2)C(=O)C1` [Compound 160, (2S,4R)-1-[2-(4-acetyl-2-oxopiperazin-1-yl)acetyl]-4-fluoro-N-[(S)-phenyl[4-(propan-2-yl)phenyl]methyl]pyrrolidine-2-carboxamide] the same measures were over 100000 nM and 69 nM.
Regarding `CC(=O)N1C[C@H]2C[C@H](C(=O)N3C[C@H](F)C[C@H]3C(=O)N[C@@H](c3ccccc3)c3ccc(C(C)C)cc3)O[C@H]2C1` [Compound 162, (2S,4R)-1-[(2R,3aR,6aR)-5-acetyl-hexahydro-2H-furo[2,3-c]pyrrole-2-carbonyl]-4-fluoro-N-[(S)-phenyl[4-(propan-2-yl)phenyl]methyl]pyrrolidine-2-carboxamide], the values for the IC50 in assay [1] and in assay [2] were over 100000 nM and 136 nM, respectively.
For `CC(=O)N1CC2(CCC(C(=O)N3C[C@H](F)C[C@H]3C(=O)N[C@@H](c3ccccc3)c3ccc(C(C)C)cc3)O2)C1` (stereo partly drawn) [Compound 163, (2S,4R)-1-{2-acetyl-5-oxa-2-azaspiro[3.4]octane-6-carbonyl}-4-fluoro-N-[(S)-phenyl[4-(propan-2-yl)phenyl]methyl]pyrrolidine-2-carboxamide] the same measures were over 100000 nM and 135 nM.
Consider `CC(=O)N1CCCC(C(=O)N2C[C@H](F)C[C@H]2C(=O)N[C@@H](c2ccccc2)c2ccc(C(C)C)cc2)CC1` (stereo partly drawn) [Compound 169, (2S,4R)-1-(1-acetylazepane-4-carbonyl)-4-fluoro-N-[(S)-phenyl[4-(propan-2-yl)phenyl]methyl]pyrrolidine-2-carboxamide], for which the figures for the IC50 in assay [1] and in assay [2] were over 100000 nM and 91 nM, respectively.
For `CC(=O)N1CCC[C@@H](CC(=O)N2C[C@H](F)C[C@H]2C(=O)N[C@@H](c2ccccc2)c2ccc(C(C)C)cc2)C1` [Compound 171, (2S,4R)-1-{2-[(3S)-1-acetylpiperidin-3-yl]acetyl}-4-fluoro-N-[(S)-phenyl[4-(propan-2-yl)phenyl]methyl]pyrrolidine-2-carboxamide], in that order: over 100000 nM and 97 nM.
For `CC(=O)N1CCCC1CCC(=O)N1C[C@H](F)C[C@H]1C(=O)N[C@@H](c1ccccc1)c1ccc(C(C)C)cc1` (stereo partly drawn) [Compound 172, (2S,4R)-1-[3-(1-acetylpyrrolidin-2-yl)propanoyl]-4-fluoro-N-[(S)-phenyl[4-(propan-2-yl)phenyl]methyl]pyrrolidine-2-carboxamide] the same measures were over 100000 nM and 255 nM.
For `CC(=O)N1CCC2(CC1)CC2C(=O)N1C[C@H](F)C[C@H]1C(=O)N[C@@H](c1ccccc1)c1ccc(C(C)C)cc1` (stereo partly drawn) [Compound 174, (2S,4R)-1-{6-acetyl-6-azaspiro[2.5]octane-1-carbonyl}-4-fluoro-N-[(S)-phenyl[4-(propan-2-yl)phenyl]methyl]pyrrolidine-2-carboxamide] the same measures were over 100000 nM and 179 nM.
As for `CC(=O)N1CCC(C(C)C(=O)N2C[C@H](F)C[C@H]2C(=O)N[C@@H](c2ccccc2)c2ccc(C(C)C)cc2)CC1` (stereo partly drawn) [Compound 180, (2S,4R)-1-[2-(1-acetylpiperidin-4-yl)propanoyl]-4-fluoro-N-[(S)-phenyl[4-(propan-2-yl)phenyl]methyl]pyrrolidine-2-carboxamide], the IC50 was over 100000 nM in assay [1] and 235 nM in assay [2].
For `CC(C)c1ccc([C@@H](NC(=O)[C@@H]2C[C@@H](F)CN2C(=O)C(O)C(C)C)c2ccccc2)cc1` (stereo partly drawn) [Compound 185, (2S,4R)-4-fluoro-1-(2-hydroxy-3-methylbutanoyl)-N-[(S)-phenyl[4-(propan-2-yl)phenyl]methyl]pyrrolidine-2-carboxamide], the IC50 in assay [1] was over 100000 nM; in assay [2], 26 nM.
Consider `CC(C)c1ccc([C@@H](NC(=O)[C@@H]2C[C@@H](F)CN2C(=O)CNC(=O)C(F)(F)F)c2ccccc2)cc1` [Compound 187, (2S,4R)-4-fluoro-N-[(S)-phenyl[4-(propan-2-yl)phenyl]methyl]-1-[2-(2,2,2-trifluoroacetamido)acetyl] pyrrolidine-2-carboxamide], for which the IC50 is over 100000 nM in assay [1] and 73 nM in assay [2].
For `CC(C)c1ccc([C@@H](NC(=O)[C@@H]2C[C@@H](F)CN2C(=O)CC#N)c2ccccc2)cc1` [Compound 188, (2S,4R)-1-(2-cyanoacetyl)-4-fluoro-N-[(S)-phenyl[4-(propan-2-yl)phenyl]methyl]pyrrolidine-2-carboxamide], in that order: over 100000 nM and 237 nM.
Turning to `CC(=O)N(CC(N)=O)CC(=O)N1C[C@H](F)C[C@H]1C(=O)N[C@@H](c1ccccc1)c1ccc(C(C)C)cc1` [Compound 189, (2S,4R)-1-{2-[N-(carbamoylmethyl)acetamido]acetyl}-4-fluoro-N-[(S)-phenyl[4-(propan-2-yl)phenyl]methyl]pyrrolidine-2-carboxamide], the IC50 in assay [1] is over 100000 nM; in assay [2] it was 95 nM.
Consider `CC(=O)NCCC(=O)N1C[C@H](F)C[C@H]1C(=O)N[C@@H](c1ccccc1)c1ccc(C(C)C)cc1` [Compound 190, (2S,4R)-1-(3-acetamidopropanoyl)-4-fluoro-N-[(S)-phenyl[4-(propan-2-yl)phenyl]methyl]pyrrolidine-2-carboxamide], for which the figures for the IC50 in assay [1] and in assay [2] were over 100000 nM and 220 nM, respectively.
In the case of `CC(=O)NCCCC(=O)N1C[C@H](F)C[C@H]1C(=O)N[C@@H](c1ccccc1)c1ccc(C(C)C)cc1` [Compound 191, (2S,4R)-1-(4-acetamidobutanoyl)-4-fluoro-N-[(S)-phenyl[4-(propan-2-yl)phenyl]methyl]pyrrolidine-2-carboxamide], the values for the IC50 in assay [1] and in assay [2] were over 100000 nM and 131 nM, respectively.
Consider `CC(C)c1ccc([C@@H](NC(=O)[C@@H]2C[C@@H](F)CN2C(=O)CN2CCCC2=O)c2ccccc2)cc1` [Compound 192, (2S,4R)-4-fluoro-1-[2-(2-oxopyrrolidin-1-yl)acetyl]-N-[(S)-phenyl[4-(propan-2-yl)phenyl]methyl]pyrrolidine-2-carboxamide], for which the IC50 in assay [1] is over 100000 nM; in assay [2], 76 nM.
Regarding `CC(C)c1ccc([C@@H](NC(=O)[C@@H]2C[C@@H](F)CN2C(=O)CNC2(C)COC2)c2ccccc2)cc1` [Compound 193, (2S,4R)-4-fluoro-1-{2-[(3-methyloxetan-3-yl)amino]acetyl}-N-[(S)-phenyl[4-(propan-2-yl)phenyl]methyl]pyrrolidine-2-carboxamide], the results for the IC50 in assay [1] and in assay [2] were over 100000 nM and 303 nM, respectively.
For `CC(C)c1ccc([C@@H](NC(=O)[C@@H]2C[C@@H](F)CN2C(=O)Cc2nnc[nH]2)c2ccccc2)cc1` [Compound 194, (2S,4R)-4-fluoro-N-[(S)-phenyl[4-(propan-2-yl)phenyl]methyl]-1-[2-(4H-1,2,4-triazol-3-yl)acetyl]pyrrolidine-2-carboxamide] the same measures were over 100000 nM and 27 nM.
For the compound `CC(C)c1ccc([C@@H](NC(=O)[C@@H]2C[C@@H](F)CN2C(=O)Cc2cnco2)c2ccccc2)cc1` [Compound 195, (2S,4R)-4-fluoro-1-[2-(1,3-oxazol-5-yl)acetyl]-N-[(S)-phenyl[4-(propan-2-yl)phenyl]methyl]pyrrolidine-2-carboxamide], the IC50 in assay [1] was over 100000 nM; in assay [2], 44 nM.
Regarding `CC(=O)N[C@@H](CCC(=O)O)C(=O)N1C[C@H](F)C[C@H]1C(=O)N[C@@H](c1ccccc1)c1ccc(C(C)C)cc1` [Compound 196, (4S)-4-acetamido-5-[(2S,4R)-4-fluoro-2-{[(S)-phenyl[4-(propan-2-yl)phenyl]methyl]carbamoyl}pyrrolidin-1-yl]-5-oxopentanoic acid], the IC50 in assay [1] is over 100000 nM; in assay [2] it was 143 nM.
For `CC(=O)N[C@H](CCC(=O)O)C(=O)N1C[C@H](F)C[C@H]1C(=O)N[C@@H](c1ccccc1)c1ccc(C(C)C)cc1` [Compound 197, (4R)-4-acetamido-5-[(2S,4R)-4-fluoro-2-{[(S)-phenyl[4-(propan-2-yl)phenyl]methyl]carbamoyl}pyrrolidin-1-yl]-5-oxopentanoic acid] the same measures were over 100000 nM and 128 nM.
For `CC(C)c1ccc([C@@H](NC(=O)[C@@H]2CCCN2C(=O)C2CC2)c2ccccc2)cc1` [Compound 203, (2S)-1-cyclopropanecarbonyl-N-[(S)-phenyl[4-(propan-2-yl)phenyl]methyl]pyrrolidine-2-carboxamide], in that order: over 100000 nM and 862 nM.
For `CC(=O)N1C[C@@H](O)C[C@H]1C(=O)N[C@@H](c1ccccc1)c1ccc(C(C)C)cc1` [Compound 204, (2S,4S)-1-acetyl-4-hydroxy-N-[(S)-phenyl[4-(propan-2-yl)phenyl]methyl]pyrrolidine-2-carboxamide] the same measures were over 100000 nM and 3530 nM.
Take `CC(=O)N1C[C@H](O)C[C@H]1C(=O)N[C@@H](c1ccccc1)c1ccc(C(C)C)cc1` [Compound 205, (2S,4R)-1-acetyl-4-hydroxy-N-[(S)-phenyl[4-(propan-2-yl)phenyl]methyl]pyrrolidine-2-carboxamide]: the IC50 in assay [1] is over 100000 nM; in assay [2], 3740 nM.
